{
  "source": "paper PMC6251916",
  "about": "“CKD-506, a novel HDAC6-selective inhibitor, improves renal outcomes and survival in a mouse model of systemic lupus erythematosus” (Scientific Reports, 2018)",
  "key": {"[1]": {"system": "acetylation of histone H4", "assay": "Analysis of protein acetylation in human PBMC (western blot)", "type": "cell-based", "conditions": "4 hr", "description": "(§1) Human peripheral blood mononuclear cells (PBMC) (IRB No. CKD-IRB-012) were seeded (1.0 × 10^6 cells/well) and cultured for 24 hr on 12-well plate before treatment of CKD-506 or LBH-589. The chemicals were treated for 4 hr. After harvesting cells, total protein extracts were prepared. The protein extracts were resolved in pre-made SDS-PAGE (NuPAGE® Bis-Tris Precast Gels, Invitrogen). Proteins were transferred onto polyvinylidene difluoride (PVDF) membrane and probed with the following antibodies; anti-acetyl α tubulin (1:5000, #5335, Cell Signaling Technology), α tubulin (1:2000, #2144, Cell Signaling Technology), anti-acetyl histone H4(1:5000, #8647, Cell Signaling Technology), anti-histone H4(1:1000, #2935S, Cell Signaling Technology), and anti-beta-actin (1:5000, #A5441, Sigma). The horseradish peroxidase-conjugated anti-rabbit IgG (1:5000, #7074S, Cell Signaling Technology) and anti-mouse IgG (1:5000, #7076 S, Cell Signaling Technology) were used as secondary antibodies. Acetylated proteins were visualized by chemiluminescence (RPN2235, GE healthcare) and detected by the Gel documentation system (ChemiDoc™, BioRad)."}, "acetylation of α tubulin": {"system": "acetylation of α tubulin", "assay": "Analysis of protein acetylation in human PBMC (western blot)", "type": "cell-based", "description": "as §1"}, "NZB/W F1 female mice [2]": {"system": "NZB/W F1 female mice", "assay": "Murine SLE model: survival, severe proteinuria, UP/C", "type": "in vivo, mouse", "conditions": "for Survival rate at the end of the study: 42-weeks of age; for incidence of severe proteinuria (urine protein >300 mg/dl): 42 weeks of age", "description": "Survival had been monitored until 42 weeks of age.\nDuring the experiments, urine protein levels had been measured every 2 weeks. Fresh urine was collected by performing abdominal massages. Urine protein was measured with the Coomassie Brilliant Blue method as described in our previous study. Urine creatinine was measured using a DRI-CHEM 3000 Colorimetric analyzer (Fujifilm, Tokyo, Japan) with the urine diluted in deionized water (1:100 dilution)."}, "NZB/W F1 female mice [3]": {"system": "NZB/W F1 female mice", "assay": "Murine SLE model: flow cytometry of splenocytes", "type": "in vivo, mouse", "source_text": "Single cell suspensions were obtained from the spleens of NZB/W F1 mice at autopsy (at 43–44 weeks of age). The splenocytes were stained with PerCP-Cy5.5-conjugated anti-mouse CD3e (PerCP-cy5.5-CD3e, eBioscience, San Diego, CA, USA), fluorescein isothiocyanate (FITC)-conjugated anti-mouse CD4 (FITC-CD4, BD Biosciences, San Jose, CA, USA), PE-cyanine7-conjugated anti-mouse CD8a (eBioscience), allo-phycocyanin (APC)-conjugated anti-mouse CD25 (BD Biosciences) and PE-conjugated anti-mouse CD138 (BD Biosciences).\nT cell profile was analyzed as described previously; briefly, we examined proportions of Th1 cells (CD4^+CD25^+T-bet^+), Th2 cells (CD4^+CD25^+GATA-3^+), Th17 cells (CD4^+CD25^+ROR-γt^+), and Treg cells (CD4^+CD25^+Foxp3^+). To analyze T helper subsets, the splenocytes were stained with antibodies to CD4 and CD25 (FITC-conjugated anti-mouse CD4 and APC-conjugated anti-mouse CD25, BD Biosciences). Cells were fixed and permeabilized prior to staining with T-bet, GATA-3, ROR-γt and Foxp3 antibodies (PE-, BD Biosciences)."}, "[4]": {"system": "THP1-Blue ISG human monocyte cell line", "assay": "cGAMP induced IFN promoter activity reporter assay (IRF-inducible SEAP)", "type": "cell-based", "conditions": "3 μM; 10 μM cGAMP; 24hr; significant", "source_text": "Supplementary Figure 2. A representative gating scheme of the T cell subset and CD138+ […]\nTo analyze T helper subsets, splenocytes were stained with antibodies to CD4 and CD25 (FITC-conjugated anti-mouse CD4 and APC-conjugated anti-mouse CD25, BD Biosciences).\nCells were fixed and permeabilized prior to staining with Foxp3 (Tube 007), ROR-γt (Tube 008), T-bet (Tube 009), and GATA-3 (Tube 010) antibodies (PE-, BD Biosciences).\nThe splenocytes were stained with PerCP-Cy5.5-conjugated anti-mouse CD3e (PerCP-cy5.5-CD3e, eBioscience, San Diego, CA, USA), fluorescein isothiocyanate (FITC)-conjugated anti-mouse CD4 (FITC-CD4, BD Biosciences, San Jose, CA, USA), PE-cyanine7-conjugated anti-mouse CD8a (eBioscience), and APC-conjugated anti-mouse CD25 (Tube 011).\nUnstained control (no antibody, Tube 001), FITC control (FITC-conjugated anti-mouse CD4 only, Tube 002), APC control (APC-conjugated anti-mouse CD25 only, Tube 003), PE control (PE-conjugated anti-mouse CD138 (BD Bioscience) only, Tube 004), and PerCP-Cy5.5 CD3 control (PerCP-Cy5.5-conjugated anti-mouse CD3e only, Tube 005) were also used for gating. cGAMP induced IFN promoter activ ity\nSupplementary Figure 3. […]\nThe SEAP activity in the culture supernatant was measured with Flexstation (Molecular Devices, USA) after incubation with Quanti-Blue solution (InvivoGen, USA) for 15 min. […]"}, "[5]": {"design": "method as in EudraCT number: 2016-002816-42", "conditions": "ref EudraCT number: 2016-002816-42; cited from earlier work"}},
  "data": [
    {"substance": "CKD-506", "values": [
      {"measurement": "effect on acetylation of histone H4", "setting": "[1]", "result": "without affecting"},
      {"measurement": "acetylation of α tubulin, % of maximum acetylation", "setting": "acetylation of α tubulin; at 100 nM, human PBMC", "result": "about 85%"},
      {"measurement": "IC90", "setting": "acetylation of α tubulin; read-out: IC90 for the induction of α tubulin acetylation", "result": "~100", "unit": "nM"},
      {"measurement": "Survival rate at the end of the study", "setting": "NZB/W F1 female mice [2]; group CKD10: 10 mg/kg/day i.p.", "result": 73.3, "unit": "%"},
      {"measurement": "incidence of severe proteinuria (urine protein >300 mg/dl)", "setting": "NZB/W F1 female mice [2]; group CKD10: 10 mg/kg/day i.p.", "result": 13.3, "unit": "%"},
      {"measurement": "Survival rate at the end of the study", "setting": "NZB/W F1 female mice [2]; group CKD30: 30 mg/kg/day i.p.", "result": 93.3, "unit": "%"},
      {"measurement": "incidence of severe proteinuria (urine protein >300 mg/dl)", "setting": "NZB/W F1 female mice [2]; group CKD30: 30 mg/kg/day i.p.", "result": 6.7, "unit": "%"},
      {"measurement": "Survival rate at the end of the study", "setting": "NZB/W F1 female mice [2]; group CKD50: 50 mg/kg/day i.p.", "result": 93.3, "unit": "%"},
      {"measurement": "incidence of severe proteinuria (urine protein >300 mg/dl)", "setting": "NZB/W F1 female mice [2]; group CKD50: 50 mg/kg/day i.p.", "result": 0, "unit": "%"},
      {"measurement": "urine protein/urine creatinine (UP/C)", "setting": "NZB/W F1 female mice [2]; group CKD50, 42 weeks, not significantly different from other groups", "result": "lowest UP/C mean value"},
      {"measurement": "fewer CD4−CD8− cells compared with group vehicle", "setting": "NZB/W F1 female mice [3]; group CKD10, spleen", "result": 19.1, "unit": "%"},
      {"measurement": "fewer CD138+ cells compared with group vehicle", "setting": "NZB/W F1 female mice [3]; group CKD10, spleen", "result": 21.2, "unit": "%"},
      {"measurement": "fewer CD4−CD8− cells compared with group vehicle", "setting": "NZB/W F1 female mice [3]; group CKD30, spleen", "result": 28.3, "unit": "%"},
      {"measurement": "fewer CD138+ cells compared with group vehicle", "setting": "NZB/W F1 female mice [3]; group CKD30, spleen", "result": 25.2, "unit": "%"},
      {"measurement": "CD4−CD8+ T cells in spleen vs vehicle", "setting": "NZB/W F1 female mice [3]; group CKD50", "result": "significantly more"},
      {"measurement": "percentage of CD25+ cells in spleen vs vehicle", "setting": "NZB/W F1 female mice [3]; group CKD50", "result": "significantly lower"},
      {"measurement": "T-bet expression by CD4+ cells vs vehicle", "setting": "NZB/W F1 female mice [3]; group CKD50, spleen", "result": "significantly lower"},
      {"measurement": "fewer CD4−CD8− cells compared with group vehicle", "setting": "NZB/W F1 female mice [3]; group CKD50, spleen", "result": 27.3, "unit": "%"},
      {"measurement": "fewer CD138+ cells compared with group vehicle", "setting": "NZB/W F1 female mice [3]; group CKD50, spleen", "result": 31.6, "unit": "%"},
      {"measurement": "cGAMP induced IFN promoter activity", "setting": "[4]", "result": "repressed"},
      {"measurement": "safety in phase I clinical trial", "setting": "[5]", "result": "did not reveal significant safety issues"}
    ]}
  ]
}
